pIC50: −log10 of the molar value.
Columns and labels:
[1] = test system: RSV A2 strain; assay: Assessment of RSV induced CPE in HEp2 cells (RSV A2 strain); assay type: cell-based; conditions: human respiratory syncytial virus, HEp2 cells; for pIC50: HEp-2, 120 h, 1 MOI, 5 days, read-out: RSV A2 CPE IC50; for inhibition at 0.01 µg/mL / inhibition at 0.1 µg/mL: HEp-2; for inhibition at 0.01 µg/mL: Inhibition (%) at 0.01 μg/mL; for inhibition at 0.1 µg/mL: Inhibition (%) at 0.1 μg/mL, read-out: RSV A2 CPE % Inhibition
Procedure, shortened: (§1)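 HEp2 cells were infected at MOI 1 with RSV A2 or RSV B Washington, with compound added at the same time (0.5% DMSO final). Incubation was 5 days for A2 and 6 days for B, then viability was read by resazurin fluorescence (545/590 nm) after 6 h. IC50, IC75 and IC90 came from concentration-response curves.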

[2] = test system: RSV B Washington strain; assay: Assessment of RSV induced CPE in HEp2 cells (RSV B Washington strain); assay type: cell-based; conditions: human respiratory syncytial virus, HEp2 cells; for pIC50: HEp-2, 144 h, 1 MOI, 6 days, read-out: RSV B CPE IC50; for inhibition at 1 µg/mL / inhibition at 0.1 µg/mL: HEp-2; for inhibition at 1 µg/mL: Inhibition (%) at 1 μg/mL, read-out: RSV B CPE % Inhibition; for inhibition at 0.1 µg/mL: Inhibition (%) at 0.1 μg/mL
Procedure, shortened: as §1

[3] = Cell viability: resazurin assay; assay type: cell-based, human; conditions: human, HEp2 cells
Procedure, shortened: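 Viability read-out: resazurin fluorescence (ex 545, em 590 nm) after 6 h, following 5-day compound incubation of HEp2 cells (37 °C, 5% CO2, 5% FBS, 0.5% DMSO final). Loss expressed as percentage of vehicle, negative if viability rose; CC50 derived from concentration-response curve where appropriate.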

Row | SMILES | pIC50 [1] | inhibition at 0.01 µg/mL [1] | pIC50 [2] | inhibition at 1 µg/mL [2] | CC50 at 5 days [3] | inhibition at 0.1 µg/mL [2] | inhibition at 0.1 µg/mL [1]
1 | Cc1cccc(C#N)c1NC(=O)c1cc2c(s1)-c1ccccc1N(C(=O)c1ccc(NC(=O)c3cc4c(nc3N3CC5(CCOCC5)C3)CCC4)cc1)CC2 [Example 74, 6-(4-(2-(7-oxa-2-azaspiro[3.5]nonan-2-yl)-6,7-dihydro-5H-cyclopenta[b]pyridine-3-carboxamido)benzoyl)-N-(2-cyano-6-methylphenyl)-5,6-dihydro-4H-benzo[b]thieno[2,3-d]azepine-2-carboxamide] | 9.06 | 100% | 8.42 | 77% | > 13400 nM | – | –
2 | Cc1cccc(C#N)c1NC(=O)c1cc2c(s1)-c1ccccc1N(C(=O)c1ccc(NC(=O)c3cc4c(nc3N3CC5(CCOCC5)C3)CCC4)cc1F)CC2 [Example 77, 6-(4-(2-(7-oxa-2-azaspiro[3.5]nonan-2-yl)-6,7-dihydro-5H-cyclopenta[b]pyridine-3-carboxamido)-2-fluorobenzoyl)-N-(2-cyano-6-methylphenyl)-5,6-dihydro-4H-benzo[b]thieno [2,3-d]azepine-2-carboxamide] | 8.31 | 94% | 7.72 | 92% | > 13000 nM | – | –
3 | Cc1cccc(F)c1NC(=O)c1cc2c(s1)-c1ccccc1N(C(=O)c1ccc(NC(=O)c3cc4c(nc3N3CC5(CCOCC5)C3)CCC4)cc1F)CC2 [Example 78, 6-(4-(2-(7-oxa-2-azaspiro[3.5]nonan-2-yl)-6,7-dihydro-5H-cyclopenta[b]pyridine-3-carboxamido)-2-fluorobenzoyl)-N-(2-fluoro-6-methylphenyl)-5,6-dihydro-4H-benzo[b]thieno [2,3-d]azepine-2-carboxamide] | 8.62 | 89% | 8.89 | 94% | > 13200 nM | – | –
4 | O=C(Nc1c(F)cccc1F)c1cc2c(s1)-c1ccccc1N(C(=O)c1ccc(NC(=O)c3cc4c(nc3N3CC5(CCOCC5)C3)CCC4)cc1F)CC2 [Example 79, 6-(4-(2-(7-oxa-2-azaspiro[3.5]nonan-2-yl)-6,7-dihydro-5H-cyclopenta[b]pyridine-3-carboxamido)-2-fluorobenzoyl)-N-(2,6-difluorophenyl)-5,6-dihydro-4H-benzo[b]thieno[2,3-d]azepine-2-carboxamide] | 8.64 | 92% | 8.74 | 93% | > 13100 nM | – | –
5 | O=C(Nc1c(F)cccc1Cl)c1cc2c(s1)-c1ccccc1N(C(=O)c1ccc(NC(=O)c3cc4c(nc3N3CC5(CCOCC5)C3)CCC4)cc1F)CC2 [Example 80, 6-(4-(2-(7-oxa-2-azaspiro[3.5]nonan-2-yl)-6,7-dihydro-5H-cyclopenta[b]pyridine-3-carboxamido)-2-fluorobenzoyl)-N-(2-chloro-6-fluorophenyl)-5,6-dihydro-4H-benzo[b]thieno [2,3-d]azepine-2-carboxamide] | 8.70 | 91% | 8.80 | 93% | > 12800 nM | – | –
6 | O=C(Nc1c(F)cccc1F)c1cc2c(s1)-c1ccccc1N(C(=O)c1ccc(NC(=O)c3cc4c(nc3N3CC5(CCOCC5)C3)CCOC4)cc1)CC2 [Example 82, N-(4-(2-((2,6-difluorophenyl)carbamoyl)-5,6-dihydro-4H-benzo[b]thieno[2,3-d]azepine-6-carbonyl)phenyl)-2-(7-oxa-2-azaspiro[3.5]nonan-2-yl)-7,8-dihydro-5H-pyrano[4,3-b] pyridine-3-carboxamide] | 9.11 | 97% | 8.12 | – | > 13100 nM | 100% | –
7 | O=C(Nc1c(F)cccc1Cl)c1cc2c(s1)-c1ccccc1N(C(=O)c1ccc(NC(=O)c3cc4c(nc3N3CC5(CCOCC5)C3)CCOC4)cc1)CC2 [Example 83, N-(4-(2-((2-chloro-6-fluorophenyl)carbamoyl)-5,6-di-hydro-4H-benzo[b]thieno[2,3-d]azepine-6-carbonyl)phenyl)-2-(7-oxa-2-azaspiro[3.5]nonan-2-yl)-7,8-dihydro-5H-pyrano [4,3-b]pyridine-3-carboxamide] | 9.82 | 100% | 8.21 | 95% | > 12800 nM | – | –
8 | O=C(Nc1ccccc1F)c1cc2c(s1)-c1ccccc1N(C(=O)c1ccc(NC(=O)c3cc4ccccc4nc3N3CC4(CCOCC4)C3)cc1)CC2 [Example 84, 6-(4-(2-(7-oxa-2-azaspiro[3.5]nonan-2-yl)quinoline-3-carboxamido)benzoyl)-N-(2-fluorophenyl)-5,6-dihydro-4H-benzo[b]thieno[2,3-d]azepine-2-carboxamide] | 9.89 | – | 7.96 | 68% | > 13600 nM | – | 97%
9 | O=C(Nc1ccc(F)cc1F)c1cc2c(s1)-c1ccccc1N(C(=O)c1ccc(NC(=O)c3cc4ccccc4nc3N3CC4(CCOCC4)C3)cc1)CC2 [Example 85, 6-(4-(2-(7-oxa-2-azaspiro[3.5]nonan-2-yl)quinoline-3-carboxamido)benzoyl)-N-(2,4-difluorophenyl)-5,6-dihydro-4H-benzo[b]thieno[2,3-d]azepine-2-carboxamide] | 8.46 | – | 7.87 | 91% | > 13200 nM | – | 95%
10 | O=C(Nc1c(F)cccc1F)c1cc2c(s1)-c1ccccc1N(C(=O)c1ccc(NC(=O)c3cc4ccccc4nc3N3CC4(CCOCC4)C3)cc1)CC2 [Example 86, 6-(4-(2-(7-oxa-2-azaspiro[3.5]nonan-2-yl)quinoline-3-carboxamido)benzoyl)-N-(2,6-difluorophenyl)-5,6-dihydro-4H-benzo[b]thieno[2,3-d]azepine-2-carboxamide] | 9.77 | 85% | 7.64 | – | > 13200 nM | 100% | –
11 | O=C(Nc1c(F)cc(F)cc1F)c1cc2c(s1)-c1ccccc1N(C(=O)c1ccc(NC(=O)c3cc4ccccc4nc3N3CC4(CCOCC4)C3)cc1)CC2 [Example 88, 6-(4-(2-(7-oxa-2-azaspiro[3.5]nonan-2-yl)quinoline-3-carboxamido)benzoyl)-N-(2,4,6-trifluorophenyl)-5,6-di-hydro-4H-benzo[b]thieno[2,3-d]azepine-2-carboxamide] | 9.24 | 93% | 8.52 | 93% | > 12900 nM | – | –
12 | Cc1cccc(F)c1NC(=O)c1cc2c(s1)-c1ccccc1N(C(=O)c1ccc(NC(=O)c3cc4sccc4nc3N3CC4(CCOCC4)C3)cc1)CC2 [Example 89, 6-(4-(5-(7-oxa-2-azaspiro[3.5]nonan-2-yl)thieno[3,2-b]pyridine-6-carboxamido)benzoyl)-N-(2-fluoro-6-methyl-phenyl)-5,6-dihydro-4H-benzo[b]thieno[2,3-d]azepine-2-carboxamide] | 9.30 | 100% | 7.71 | – | > 13200 nM | 100% | –
13 | Cc1cnc(N2CC3(COC3)C2)c(C(=O)Nc2ccc(C(=O)N3CCc4cc(C(=O)Nc5c(C)cccc5F)sc4-c4ccccc43)cc2)c1 [Example 90, N-(2-fluoro-6-methylphenyl)-6-(4-(5-methyl-2-(2-oxa-6-azaspiro[3.3]heptan-6-yl)nicotinamido)benzoyl)-5,6-dihydro-4H-benzo[b]thieno[2,3-d]azepine-2-carboxamide] | 8.74 | 100% | 6.29 | 99% | > 14500 nM | – | –
14 | Cc1cnc(N2CCC3(CC2)COC3)c(C(=O)Nc2ccc(C(=O)N3CCc4cc(C(=O)Nc5c(C)cccc5F)sc4-c4ccccc43)cc2)c1 [Example 91, N-(2-fluoro-6-methylphenyl)-6-(4-(5-methyl-2-(2-oxa-7-azaspiro[3.5]nonan-7-yl)nicotinamido)benzoyl)-5,6-dihydro-4H-benzo[b]thieno[2,3-d]azepine-2-carboxamide] | 8.89 | 100% | 6.41 | 100% | > 14000 nM | – | –
15 | Cc1cnc(N2CCC3(CC2)COC3)c(C(=O)Nc2ccc(C(=O)N3CCc4cc(C(=O)Nc5c(F)cccc5F)sc4-c4ccccc43)cc2)c1 [Example 92, N-(2,6-difluorophenyl)-6-(4-(5-methyl-2-(2-oxa-7-aza-spiro[3.5]nonan-7-yl)nicotinamido)benzoyl)-5,6-dihydro-4H-benzo[b]thieno[2,3-d]azepine-2-carboxamide] | 9.77 | 93% | 7.22 | 100% | > 13900 nM | – | –
16 | Cc1cnc(N2CCC3(CC2)COC3)c(C(=O)Nc2ccc(C(=O)N3CCc4cc(C(=O)Nc5c(F)cccc5Cl)sc4-c4ccccc43)cc2)c1 [Example 93, N-(2-chloro-6-fluorophenyl)-6-(4-(5-methyl-2-(2-oxa-7-azaspiro[3.5]nonan-7-yl)nicotinamido)benzoyl)-5,6-dihydro-4H-benzo[b]thieno[2,3-d]azepine-2-carboxamide] | 9.25 | 98% | 7.23 | 100% | > 13600 nM | – | –

Reference: patent US10189863B2, “5,6-dihydro-4H-benzo[b]thieno-[2,3-d]azepine derivatives” (PULMOCIDE LIMITED, priority 2014, dated 2019)
